Reference: patent US20080153792A1, “Drug Identification and Treatment Method” (priority 2006, published 2008)

How the values were obtained:
[1] = test system: monocyte chemoattractant protein-1 (MCP-1); test: MCP-1 RNA in perigonadal fat tissue, quantitative RT/PCR; format: in vivo, mouse; conditions: 20 mg/kg; normalized with respect to the vehicle control
Experimental: In another study, total RNA from perigonadal fat tissue from lean db/+ or diabetic db/db mice treated with 20 mg/kg of 17α-ethynylandrost-5-ene-3β,7β,17β-triol was isolated and processed for quantitative RT/PCR using primers specific for monocyte chemoattractant protein-1 (MCP-1) using an iCycler iQ multicolor real time-detection system (Bio-Rad). RNA expression levels were normalized with respect to the vehicle control. […] For this study, vehicle was also administered to a control group of age matched lean heterozygous db/+ mice (n=7).

[2] = test system: human peripheral blood mononuclear cells (PBMC); test: human mixed lymphocyte reaction (MLR); format: cell-based; conditions: either 300 nM or 30 nM; 6 days; p>0.05
Experimental: Human mixed lymphocyte reaction (MLR). The capacity of 3β,16α-dihydroxy-17-oxoandrostane, 3β,17β-dihydroxy-16-oxoandrostane, 17α-ethynylandrost-5-ene-3β,7β,17β-triol, and 17β-aminoandrost-5-ene-3β-ol to affect antigen specific stimulation in which human T lymphocytes respond to a specific foreign antigen (major histocompatibility complex).
Blood samples were obtained from 3 (2 males, […]) fasting, healthy human volunteers of 23-31 years old. […] The subjects were bled between […] to limit possible fluctuations in the circulating levels of hormones or cytokines that could have influenced the in vitro responses of their lymphocytes. Peripheral blood mononuclear cells (PBMC) were isolated by centrifugation on Ficoll-Hypaque (density 1.077, Biochrom AG, Berlin, Germany) gradients and resuspended in culture medium (RPMI 1640 supplemented with 2 mM L-glutamine, penicillin (100 U/mL) and streptomycin ([…]) (Invitrogen s.rl., Milan, Italy). Autologous (responder) inactivated plasma was used at 10%. Five hundred thousand responder PBMC (PBMCr) and 500,000 allogeneic irradiated (30 Gy) stimulator PBMC (PBMCs) were mixed at a ratio of 1:1 in 200 μL medium and cultured for 6 days in flat bottom 96 well plates (Nunc, Roskilde, Denmark) at a concentration of 300 nM or 30 nM for each of the 4 compounds. The compounds were dissolved in ethanol and then diluted to the desired concentration with culture medium leading to a final solution containing 0.01% of ethanol. This vehicle was used as control. Controls also included PBMCr and PBMCs cultured separately. During the last 8 hours of the culture period the PBMC were pulsed with 1 μCi/well [^3H] thymidine (Amersham, Milan, Italy). The cells were then harvested and radioactivity incorporation measured with a beta cell counter. The mean cpm of quadruplicate wells was calculated. Proliferation of T cells was expressed as a stimulation index: SI=cpm (PMBCs xPBMCr)/cpm (PBMCr)+cpm (PBMCs). Statistical analysis was performed using the Student's t test. The cpm obtained from quadruplicate of each test compound were compared to proliferative responses obtained in control PBMCr and PBMCs cultured in the presence of the vehicle. Differences were considered significant at p<0.05.

db/db C57BL/Ks mice = test: glucose lowering in diabetic db/db mice; format: in vivo, mouse
Experimental: Glucose lowering and amelioration of insulin resistance. Glucose lowering effects and amelioration of insulin resistance was assessed in the diabetic db/db mouse model of human diabetes and insulin resistance. In these studies, db/db C57BL/Ks mice of approximately 8 to 10 weeks of age were divided into groups of 10 each and then treated with a vehicle control (no drug) or 17α-ethynylandrost-5-ene-3β,7β,17β-triol by oral gavage. The compound was administered twice a day at 20 mg/kg/day (10 mg/kg dose administered twice per day), 40 mg/kg/day (20 mg/kg dose administered twice per day) or 80 mg/kg/day (40 mg/kg dose administered twice per day) for up to 28 days. Blood glucose levels were monitored twice a week during the dosing period, using a minute amount of blood (nick tail bleeds) to measure the concentration of glucose by glucometer strips. At specific times during the dosing period (day 14 and day 28), an oral glucose tolerance test (OGTT) was also performed by administering a standard oral dose of 1 g/kg glucose (approximately 40 mg in a […]) and then the fluctuation of blood glucose levels was monitored quickly thereafter after at 15, 30, 60 and 120 minutes after the glucose dose. […] Blood glucose approached 380 mg/dL in the vehicle control group and was <230 mg/dL after at least 10 days of dosing in the drug treated group.
A treatment protocol similar to that described in example 15 was performed with db/db mice that were younger than the animals described in example 15. The animals (n=8 to 10 per group) were treated with 17α-ethynylandrost-5-ene-3β,7β,17β-triol or vehicle by oral gavage twice per day at 40 mg/kg/day (20 mg/kg dose given twice per day) and 80 mg/kg/day (40 mg/kg dose given twice per day). At the start of dosing, the animals were 6 weeks of age, before the onset of elevated glucose levels or hyperglycemia. Dosing with vehicle or drug was maintained for 32 days to determine the effect of the treatments on the onset and rate of progression of hyperglycemia in the animals. In the control group, the onset of hyperglycemia was observed after 25 days of dosing and it continued to worsen, i.e., blood glucose levels rose from normal to frank hyperglycemia, through the end of the 32 day dosing period.

C#C[C@]1(O)CC[C@H]2[C@@H]3[C@@H](O)C=C4C[C@@H](O)CC[C@]4(C)[C@H]3CC[C@@]21C [17α-ethynylandrost-5-ene-3β,7β,17β-triol]
decrease of levels of MCP-1 [1]: about 50% | immune suppression in the MLR [2]: not appreciably immune suppressive | peak glycemic excursion in OGTT (db/db C57BL/Ks mice; 80 mg/kg b.i.d. for 28 days, 30-min post-oral glucose, vehicle approximately 400 mg/dL): < 200 mg/dL | progression into the hyperglycemic state (db/db C57BL/Ks mice; 6 week old male db/db mice, 40 mg/kg): completely blocked progression | basal blood glucose hyperglycemic levels (db/db C57BL/Ks mice; 8 week old male db/db mice, 40 mg/kg dose group, twice-a-day, apparent after 10 days): markedly suppressed | blood glucose (db/db C57BL/Ks mice; after at least 10 days of dosing, vehicle approached 380 mg/dL): < 230 mg/dL | levels of glucose by the end of the 32 day dosing period (db/db C57BL/Ks mice; db/db mice 6 weeks of age at start, 40 mg/kg/day and 80 mg/kg/day oral, twice per day): did not rise above normal levels | decrease in hyperglycemic blood glucose levels (db/db C57BL/Ks mice; db/db mice 8 to 10 weeks of age, oral gavage twice a day): approximately 40% | glucose intolerance in OGTTs compared to vehicle (db/db C57BL/Ks mice; treated db/db animals): significant amelioration of glucose intolerance
